In patent publication US12421249B2, “Inhibitors of APOL1 and methods of using same” (Vertex Pharmaceuticals Incorporated, priority 2020, dated 2025) one finds IC50 and Emax data, which are given here for one compound.

SMILES strings stand for the structures. pIC50: −log10 of the molar value.

The target in this assay is T1, APOL1 G1 (Homo sapiens, UniProt O14791, I384M/S342G).
T1 sequence (O14791 28-398 S342G/I384M): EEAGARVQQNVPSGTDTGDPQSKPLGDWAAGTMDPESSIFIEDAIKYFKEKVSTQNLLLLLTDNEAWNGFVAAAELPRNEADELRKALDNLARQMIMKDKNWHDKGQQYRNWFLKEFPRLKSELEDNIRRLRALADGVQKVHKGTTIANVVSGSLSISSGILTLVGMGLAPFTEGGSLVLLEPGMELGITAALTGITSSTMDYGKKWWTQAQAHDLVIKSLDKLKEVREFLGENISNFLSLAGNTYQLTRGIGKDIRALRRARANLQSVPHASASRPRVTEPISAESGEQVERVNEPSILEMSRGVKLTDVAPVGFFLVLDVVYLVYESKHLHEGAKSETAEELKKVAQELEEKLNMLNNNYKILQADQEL
In words: Trypanosoma brucei brucei Lysis Assay Using APOL1 Recombinant Protein (AlamarBlue viability readout). The format is cell-based. The conditions noted are these: Trypanosome Assay. The gist of the method: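 Percent viability comes from AlamarBlue (resazurin→resorufin) fluorescence interpolated on a standard curve of known parasite numbers, with no-APOL1 wells as 100%. Parasites (Lister 427 bloodstream form, 120,000/well, serum-free assay medium) meet 0.05 μg/mL APOL1 (~EC90). Compounds span a 10-point series, 0.1% DMSO final.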
(Resazurin is reduced to fluorescent resorufin, in cell work by metabolically active cells.)

Regarding `[2H]C1([2H])O[C@@]2(C[C@@H](c3cn(C)nn3)N[C@@H](C)C2)c2sc(Cl)cc2[C@]1([2H])O` [Compound 385, (2S,4S,4′S,6S)-2′-chloro-4′,5′,5′-trideuterio-2-methyl-6-(1-methyltriazol-4-yl)spiro[piperidine-4,7′-thieno[2,3-c]pyran]-4′-ol], the pIC50 (IP50 = IC50 for cell proliferation, read-out: Trypanosome Assay IP50) was greater than 7.30. Where the note is “read-out: Trypanosome Assay Max Activity (%)”, the Emax worked out at 104%.
